Counter-ions that a name gives are not always drawn.

Results on one molecule are retold here after ChEMBL document CHEMBL1158978, “Antimicrobial N-methylpyridinium salts related to the xestamines from the Caribbean sponge Calyx podatypa” (1991).

Common to all, as to assay type: functional
Details in all cases: read-out: IZ

The test system of one assay is Staphylococcus aureus. Briefly: Antimicrobial activity against Staphylococcus aureus at 5 ug/ml by standard disk assay.
For the next assay, the system named is Bacillus subtilis. Briefly: Antimicrobial activity against Bacillus subtilis at 5 ug/ml by standard disk assay.
The subject of another assay is Candida albicans. Briefly: Antimicrobial activity against Candida albicans at 10 ug/ml by standard disk assay.

For the molecule `CON(C)CCCCCCCCCC/C=C\C#CCCCCc1ccc[n+](C)c1` [XESTAMINE F IODIDE SALT], the results for the zone of inhibition at 5 µg/mL in the assay on Staphylococcus aureus and with Bacillus subtilis were 9 mm and 8 mm, respectively. The zone of inhibition at 10 µg/mL in the assay on Candida albicans stood at 10 mm.
